From ChEMBL document CHEMBL1201862, “PubChem BioAssay data set” (2004)
Where “and” joins values, the source holds several entries; their conditions need not be identical. Equal values may be shown once.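 Grown in 96-well plates, cells were treated for 48 hours with each compound at five concentrations. Insufficient inhibition: endpoint recorded as highest concentration tested. GI50: concentration for 50% inhibition of growth.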 Calls of active or inactive are those of the source. Cut-off read from the data, not from the text of the source: active = GI50 up to about 1.1 µM and inactive = higher.

Tests used:
Assay in all cases: NCI-60 cell line screen, 48 h
[1] = test system: 786-0
[2] = test system: A498
[3] = test system: A549
[4] = test system: DLD-1
[5] = test system: HCT-15
[6] = test system: HOP-62
[7] = test system: HOP-92
[8] = test system: M14
[9] = test system: Malme-3M
[10] = test system: NCI-H522
[11] = test system: OVCAR-8
[12] = test system: SF-539
[13] = test system: SK-MEL-2
[14] = test system: SNB-75
[15] = test system: UACC-257

Structure (SMILES)	GI50 [1]	GI50 [2]	GI50 [3]	GI50 [4]	GI50 [5]	GI50 [6]	GI50 [7]	GI50 [8]	GI50 [9]	GI50 [10]	GI50 [11]	GI50 [12]	GI50 [13]	GI50 [14]	GI50 [15]
COc1ccc(C(=O)CC(=O)C(=O)Nc2ccc(C)c(C)c2)cc1	> 69 µM (inactive)	> 100 µM (inactive)	> 91.8 µM (inactive)	61.8 µM (inactive)	31.3 µM	> 90.8 µM (inactive)	> 51.3 µM (inactive)	> 100 µM (inactive)	> 100 µM (inactive)	68.9 µM (inactive)	> 100 µM (inactive)	> 100 µM (inactive)	> 100 µM (inactive)	11.3 µM (inactive)	> 100 µM (inactive)
C[Si](C)(C)C#C[I+]c1ccccc1	45.6 µM (inactive)	> 100 µM (inactive)	> 100 µM (inactive)	19.4 µM (inactive)	22.5 µM	> 100 µM (inactive)	40.5 µM (inactive)	23.5 µM (inactive)	41 µM (inactive)	9.4 µM (inactive)	19.6 µM (inactive)	28.9 µM (inactive)	> 100 µM (inactive)	40.4 µM (inactive)	> 100 µM (inactive)
O/N=C1/C(=C/c2ccc(Cl)cc2)CCCC1C(NO)c1ccc(Cl)cc1 (centres undefined)	20.7 µM (inactive)	18.1 µM (inactive)	20.3 µM (inactive)	26.5 µM (inactive)	19.1 µM	22.8 µM (inactive)		16.2 µM (inactive)	26.7 µM (inactive)	20.3 µM (inactive)	21.1 µM (inactive)	25.2 µM (inactive)	27.1 µM (inactive)	12.6 µM (inactive)	17.2 µM (inactive)
COc1ccc(OC(C)C(=O)O)c2c1CCCC2=O (centres undefined)	> 100 µM (inactive)	> 100 µM (inactive)	> 100 µM (inactive)	> 100 µM (inactive)	> 100 µM	> 100 µM (inactive)		> 100 µM (inactive)	> 100 µM (inactive)	> 100 µM (inactive)	> 100 µM (inactive)	> 100 µM (inactive)	> 100 µM (inactive)	> 100 µM (inactive)	> 100 µM (inactive)
O=C(c1ccccc1)c1nnn(Cc2ccccc2Cn2nnc(C(=O)c3ccccc3)c2C(=O)c2ccccc2)c1C(=O)c1ccccc1	> 100 µM (inactive)	> 100 µM (inactive)	48.2 µM (inactive)	> 100 µM (inactive)	> 100 µM	> 100 µM (inactive)	> 100 µM (inactive)	> 100 µM (inactive)	> 100 µM (inactive)	> 100 µM (inactive)	> 100 µM (inactive)	> 100 µM (inactive)	> 100 µM (inactive)	> 100 µM (inactive)	> 100 µM (inactive)
CC(C)=CCSC1CC2C(CC1(C)O)C2(C)C (centres undefined)	15.9 µM (inactive) and 13.1 µM (inactive)	21.6 µM (inactive) and 17.3 µM (inactive)	11.6 µM (inactive) and 16.6 µM (inactive)	17.3 µM (inactive) and 13.8 µM (inactive)	17.3 µM and 16.1 µM	16.4 µM (inactive) and 16.6 µM (inactive)	14.1 µM (inactive) and 16.6 µM (inactive)	17.7 µM (inactive) and 14.7 µM (inactive)	17.3 µM (inactive) and 16.4 µM (inactive)		16.6 µM (inactive) and 14.1 µM (inactive)	18 µM (inactive) and 15.6 µM (inactive)		15.8 µM (inactive) and 11.5 µM (inactive)	
COC1C(OC(=S)Nc2ccccc2)c2ccccc2N1C(C)=O (centres undefined)	> 100 µM (inactive)	> 100 µM (inactive)	87.7 µM (inactive)	90.2 µM (inactive)	52.1 µM	> 100 µM (inactive)	13.7 µM (inactive)	89.3 µM (inactive)			> 100 µM (inactive)	> 100 µM (inactive)	68.9 µM (inactive)	> 100 µM (inactive)	> 100 µM (inactive)
CCCCCCC(=O)CC(=O)C(=O)Nc1ccccc1C	> 55.5 µM (inactive)	> 100 µM (inactive)	> 100 µM (inactive)	> 67.5 µM (inactive)	> 44.4 µM	> 100 µM (inactive)	> 100 µM (inactive)	> 100 µM (inactive)	> 100 µM (inactive)	> 68.5 µM (inactive)	> 100 µM (inactive)	> 100 µM (inactive)	> 100 µM (inactive)	> 100 µM (inactive)	> 100 µM (inactive)
COc1ccc(-c2c(C3=NCCN3)nnn2-c2ccccc2)cc1	> 100 µM (inactive)	> 100 µM (inactive)	> 100 µM (inactive)	> 100 µM (inactive)	> 100 µM	> 100 µM (inactive)	> 100 µM (inactive)	> 100 µM (inactive)	> 100 µM (inactive)	> 100 µM (inactive)	> 100 µM (inactive)	> 100 µM (inactive)	> 100 µM (inactive)	98.9 µM (inactive)	> 100 µM (inactive)
Cc1cccc(C)c1NC(=O)C1C(=O)N(c2c(C)cccc2C)C(=O)/C1=N\NC(N)=S (centres undefined)	> 100 µM (inactive)	> 100 µM (inactive)	> 100 µM (inactive)	> 100 µM (inactive)	> 100 µM	> 100 µM (inactive)	> 100 µM (inactive)	> 100 µM (inactive)	> 100 µM (inactive)	> 100 µM (inactive)	> 100 µM (inactive)	> 100 µM (inactive)	> 100 µM (inactive)		> 100 µM (inactive)
CC(C)(Oc1ccc(/C=C/C(=O)c2ccccc2)cc1)C(=O)Nc1c(Cl)cccc1Cl	> 10 µM (inactive)	0.524 µM (active)	> 10 µM (inactive)	> 10 µM (inactive)	> 10 µM	> 10 µM (inactive)	> 10 µM (inactive)	> 10 µM (inactive)	> 10 µM (inactive)	4.67 µM (inactive)	> 10 µM (inactive)	> 10 µM (inactive)	> 10 µM (inactive)	> 10 µM (inactive)	> 10 µM (inactive)
Cc1nc(Nc2ccc(Cl)cc2)sc1C(=O)NNC(=O)C(=O)NN	17.3 µM (inactive)	15.7 µM (inactive)	21 µM (inactive)	18.5 µM (inactive)	17.1 µM	21.5 µM (inactive)	19.9 µM (inactive)	18.6 µM (inactive)	21.9 µM (inactive)	17.2 µM (inactive)	32.5 µM (inactive)	26.1 µM (inactive)	17.6 µM (inactive)	23.7 µM (inactive)	25.1 µM (inactive)
CC(C)C(NCc1c2ccccc2nc2ccccc12)C(=O)O (centres undefined)	61.2 µM (inactive)		74.6 µM (inactive)	23.8 µM (inactive)	35.7 µM	> 100 µM (inactive)	12.4 µM (inactive)	62.4 µM (inactive)	55.3 µM (inactive)	22 µM (inactive)	26.5 µM (inactive)	45.3 µM (inactive)	62.2 µM (inactive)	61.8 µM (inactive)	54.5 µM (inactive)
O=[N+]([O-])c1cccc(C2N3CCCCC3[C@@H]3c4[nH]c5ccccc5c4CCN23)c1 (some centres undefined)	16.9 µM (inactive)	15 µM (inactive)	14 µM (inactive)	12.3 µM (inactive)	10.4 µM	16.3 µM (inactive)	16 µM (inactive)	14.5 µM (inactive)	2.55 µM (inactive)		31.4 µM (inactive)	14.8 µM (inactive)	10.1 µM (inactive)		14 µM (inactive)
